Assay results taken from patent US20240416143A1, “PHOTONIC ANTIMICROBIAL WOUND SURFACE DRESSING” (The General Hospital Corporation, priority 2021, published 2024).
Where two headings read alike, the source gives them in different places.

Key:
[1] = test system: MRSA; assay: Photoinactivation of planktonic cultures by menadione + antimicrobial blue light; format: cell-based, methicillin-resistant Staphylococcus aureus; conditions: menadione ⅛ MIC + aBL 90 J/cm^2 (50 mW/cm^2), 405 nm
Protocol: (§1) The bacterial cells were grown in BHI broth medium shaken overnight. Cells were collected by centrifugation at 4,000 rpm for 5 minutes and suspended in PBS at a density of 10^8 colony-forming units (CFU)/mL (estimated by measuring the optical density at 600 nm; O.D 0.1=10^8 cells/mL). The microbial suspension in PBS was transferred to a 35×12-mm dish and mixed with different concentrations of menadione: 0, 0.5, 1 and 2 μg/mL for MRSA USA300, AF003 and IQ0064; 0, 1, 10 and 30 μg/mL for P. aeruginosa PA01; and 0, 16, 32, 64 and 128 μg/mL for E. coli ATCC 25922. After incubation in the dark at 25° C. for 1 hour, the planktonic suspension of cells at room temperature was irradiated using aBL (405 nm) at 50 mW/cm^2 with different radiant exposures (0-250 J/cm^2). During the aBL irradiation, 40 μL of samples were withdrawn every 15 minutes, and the CFUs were determined by 10-fold serial dilutions in PBS (10-1 to 10-7 dilution factors), plated on BHI agar plates as described previously [Ref. 17]. CFUs were counted after overnight incubation at 37° C. Experiments were performed in triplicate.

[2] = test system: MRSA biofilms in ex-vivo porcine skin; assay: Photoinactivation of biofilms in ex vivo porcine partial thickness wounds by menadione + aBL; format: cell-based, methicillin-resistant Staphylococcus aureus
Protocol: (§2) Skin was handled and sanitized with 70% isopropanol solution after hair shaving. The explants and inner wounds were created using a 12 mm and 4 mm biopsy punches respectively. The explants were placed in 12 wells plates using a (8 μm pore) inserts (Corning™ Falcon™). 1 mL of DMEM media was added to each well in the plate before the insert. After 24 hours, the inner wounds in the explants were inoculated with 20 μL of 10^8 CFU/mL of bacterial solution. After that, the explants were incubated at 37° C. and 5% CO2 for 48 hours to ensure the growth of a mature bacterial biofilm. The inner wounds of the explants were replenished daily with fresh BHI media to ensure that the wounds are hydrated.
(§3) 48 hours following the inoculation, mature monobacterial biofilms of MRSA, P. aeruginosa, and E. coli were obtained with 8.00 log10 CFU/g per wound bed on each explant. MRSA biofilms in explant were reduced by 0.81 log10 CFU/g after the treatment of just aBL 250 J/cm^2 (50 mW/cm^2). However, MRSA biofilms in ex-vivo porcine skin were reduced by up to 4.18 log10 CFU/g when treated with aBL combined with menadione (200 μg/mL). For MRSA biofilms, the log reduction of mature monobacterial biofilm increased as the menadione concentration increased (see FIGS. 16A-16B). […]

[3] = target: NorA efflux pump (Staphylococcus aureus, UniProt P0A0J7); conditions: cited from earlier work
[4] = Solubility of menadione in aqueous solution; format: physicochemical
Protocol: Thus, we dissolved the menadione in two conditions: in PBS containing either 1% DMSO or 1% DMSO/Tween80 at 400 μM. Tween 80 is a surfactant and the idea is to mix with the DMSO before to add to PBS is due to necessity to improve the solubility of menadione in aqueous solution. We measured the absorption spectrum in both conditions to analyze if there is any change in optical properties. The range of wavelength absorption of menadione was measured between 200-800 nm (see FIG. 12B) to choose the optimum wavelength of the light absorption spectra. […] The maximum wavelength of absorption found was 340 nm for both conditions. […] The molar absorptivity coefficient was compared in different wavelength according with the Table 1.

[5] = test system: E. coli; assay: Photoinactivation of planktonic cultures by menadione + antimicrobial blue light; format: cell-based, Escherichia coli ATCC 25922; conditions: menadione ⅛ MIC + aBL 90 J/cm^2 (50 mW/cm^2), 405 nm
Protocol: as §1

[6] = test system: P. aeruginosa biofilms in porcine explants; assay: Photoinactivation of biofilms in ex vivo porcine partial thickness wounds by menadione + aBL; format: cell-based, Pseudomonas aeruginosa
Protocol: as §2, §3

[7] = test system: E. coli biofilms in ex-vivo explants; assay: as above; format: cell-based, Escherichia coli
Protocol: as §2, §3

[8] = test system: S. aureus MN8; conditions: S. aureus MN8 cultured aerobically vs anaerobically; cited from earlier work
[9] = test system: MRSA; assay: MIC of menadione by broth microdilution, with or without aBL; format: cell-based, methicillin-resistant Staphylococcus aureus; conditions: for MIC: Staphylococcus aureus, MRSA, light or radiation study
Protocol: (§4) The MICs of menadione in different bacterial strains were determined by a standard broth microdilution assay according to the Clinical and Laboratory Standards Institute. Briefly, menadione was prepared at 100 mg/mL in Tween 80/DMSO (1:1) as a stock solution. The stock solution was diluted to 2048 μg/mL in BHI and then serial dilutions were performed to 1024-0.015 μg/mL in a 96-well plate. Then, a 10 μL stationary growth-phase culture of 10^8 CFU/mL bacteria in BHI broth was added to the 96-well plate containing the serial dilutions of menadione. The medium containing a similar amount of Tween 80/DMSO (1:1) served as a control. The microplates were incubated at 37° C. for 24 hours and the lowest concentration of the compound capable of completely inhibiting bacterial growth was referred to as the MIC.
(§5) However, we investigated the effects of aBL (50 mW/cm^2) in potentiating the antibacterial activities of menadione in the three strains of bacteria. […] The highest fluence that we investigated was 125 J/cm^2, when we irradiated the bacteria for 42 minutes.

[10] = test system: E. coli; assay: as above; format: cell-based, Escherichia coli ATCC 25922
Protocol: as §4, §5

Sequence of NorA efflux pump (P0A0J7 whole entry): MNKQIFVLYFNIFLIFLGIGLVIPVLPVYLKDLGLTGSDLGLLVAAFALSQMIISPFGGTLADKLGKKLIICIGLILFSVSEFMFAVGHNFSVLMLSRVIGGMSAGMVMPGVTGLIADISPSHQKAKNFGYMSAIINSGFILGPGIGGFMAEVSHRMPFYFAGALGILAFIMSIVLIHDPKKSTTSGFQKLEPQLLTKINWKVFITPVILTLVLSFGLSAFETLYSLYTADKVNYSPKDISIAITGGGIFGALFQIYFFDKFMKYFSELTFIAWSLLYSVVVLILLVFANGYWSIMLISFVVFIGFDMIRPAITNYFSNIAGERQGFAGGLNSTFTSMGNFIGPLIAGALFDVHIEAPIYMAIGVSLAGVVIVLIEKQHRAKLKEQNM

For CC1=CC(=O)c2ccccc2C1=O [menadione, 2-methyl-1,4-naphthoquinone], the “eradication by aBL combined with menadione” value [1] was 4.59 log10 CFU/mL, the “biofilm reduction by menadione in the absence of aBL” value ([2]; ex vivo porcine explants, no aBL) was “no effect of biofilm reduction” and the “biofilm reduction by aBL combined with menadione” value ([2]; ex vivo porcine wound, menadione 200 μg/mL + aBL 250 J/cm^2 (50 mW/cm^2)) was “up to 4.18 log10 CFU/g”. For the same compound, the “inhibition of efflux pump gene expression and efflux pump function” value [3] was “significant inhibition”, the “solubility in aqueous solution” value ([4]; PBS with 1% DMSO/Tween80 vs 1% DMSO) was “best solubility” and the solubility in water ([4]; water) was “not soluble in water”. For the same compound, the “eradication by aBL combined with menadione” value [5] was 6 log10, the “biofilm reduction by menadione and blue light” value ([6]; 50 μg/mL menadione + blue light) was 5.27 log10 CFU/mL and the “biofilm reduction by menadione in the absence of aBL” value ([6]; no aBL) was “no effect of biofilm reduction”. The “response of biofilms to aBL and menadione” value [7] was “did not respond”, the “bactericidal activity, aerobic vs anaerobic culture” value [8] was 4 fold and the MIC ([9]; 5 min, aBL 15.62 J/cm^2 (5 mins.), 50 mW/cm^2) was 8 µg/mL. It also gave an MIC ([9]; 0.175 h, aBL 31.25 J/cm^2 (10.5 mins.), 50 mW/cm^2) of 4 µg/mL, an MIC ([9]; 0.35 h, aBL 62.5 J/cm^2 (21 mins.), 50 mW/cm^2) of 1 µg/mL and an MIC ([9]; 0.7 h, aBL 125 J/cm^2 (42 mins.), 50 mW/cm^2) of 0.0625 µg/mL. The MIC ([9]; 0 J/cm^2 (Dark)) was 8 µg/mL, the “lowering of MIC by aBL” value ([9]; aBL 125 J/cm^2 vs dark) was 78% and the MIC ([10]; Escherichia coli, light or radiation study, 5 min, aBL 15.62 J/cm^2 (5 mins.), 50 mW/cm^2, read-out: MIC) was 256 µg/mL. The MIC ([10]; Escherichia coli, light or radiation study, 0.175 h, aBL 31.25 J/cm^2 (10.5 mins.), 50 mW/cm^2, read-out: MIC) was 256 µg/mL, the MIC ([10]; Escherichia coli, light or radiation study, 0.35 h, aBL 62.5 J/cm^2 (21 mins.), 50 mW/cm^2, read-out: MIC) was 4 µg/mL and the MIC ([10]; Escherichia coli, light or radiation study, 0 J/cm^2 (Dark), read-out: MIC) was 512 µg/mL. The MIC ([10]; aBL 125 J/cm^2 (42 mins.), 50 mW/cm^2) was “completely eradicated”.
